# Reference: US8822533B1, “Methods and compositions for repelling and/or killing insects” (The United States of America, as represented by the …, priority 2011, dated 2014)
# Key:
# [1] = system: Mosquitoes, either Aedes aegypti (Liverpool) or Anopheles stephensi Liston; experiment: K&D module in vitro bioassay: biting protection, knockdown and mortality; assay type: in vivo
# Experimental: In vitro bioassays were conducted as described by Klun et. al. (Klun, J. A., et al., J. Med. Entomol., 40: 293-299 (2005)). Each test replicate consisted of 3 treatments: a control (EtOH); a standard (Deet, 4.54 nmol/μl); and an experimental compound (pyrethroid analogs, 4.54 nmol/ul). The 3 treatments were randomly assigned to consecutive cells in 2, 6-cell reservoirs connected in series to a single water-bath pump; thus, 4 replicates could be tested/run. Tests were performed in an Air Science USA hood, with an air movement velocity of approx. 110-120 ft./min., temperature of 25-27° C., and RH of 15-25%. A 6-celled reservoir was connected to and heated by a constant-temperature (38° C.) water circulator (Lauda E100, Wobser GMGH and Co., Konigshofell, Germany).
# Prior to each test, the upper surface of each reservoir was coated with a thin layer of high-vacuum silicone grease (Dow Corning Corp., Midland, Mich.), and the cells then filled (approx. 6 ml. capacity) or topped-off with either: (1) expired human red blood cells suspended in citrate-phosphate-dextrose-adenine (CPDA) solution, not more than 1 month past expiration date, and to which 110 mg ATP/35 ml. blood-CPDA had been added on the day of testing; or (2) CPDA+ATP×^−3, usually made up or diluted to 10^−3 ATP on the day of testing. The filled cells were then covered with an Edicol collagen membrane (Devro, Sandy Run, S.C.) strip, and then with a just-treated (110 μl of 4.54 nmol/μl treatment or control solution) organdy cloth (G Street Fabrics, Rockville, Md.) strip. Mosquitoes used in tests were either Aedes aegypti_(Liverpool) or Anopheles stephensi_Liston. K&D modules containing 5 adult females/cell were placed over a Teflon separator atop each reservoir; the sliding floors opened allowing access to the treated organdy cloth and membrane-covered cell; and the number of mosquitoes biting (proboscis inserted through the cloth) and/or observed to be engorged within each cell at the end of a 3-5 min. exposure period was recorded. Mosquitoes were used only once in a test, and then frozen and discarded.
# Only tests in which 3 or more females fed in the control cell were analyzed, as lower feeding rates are indicative of substandard feeding readiness of that group of mosquitoes.
# […] Data were collected to record knockdown in 6 minutes, one hour and 24 hours post exposure.
# Ae. aegypti mosquitoes = experiment: Sleeve bite protection assay on treated uniform fabric, mosquitoes; assay type: in vivo, Aedes aegypti (Orlando, 1952)
# Experimental: (§1) Biological Evaluation: Bite protection assays were conducted with laboratory-reared 7-12 day old mosquitoes or sand flies. The species used throughout these studies are Aedes aegypti (Orlando, 1952) and Phlebotomus papatasi sand flies (Jerusalem, 1983). Females were pre-selected using either a hand draw box or a mechanical aspirator. An assay was conducted by wearing sewn sleeves made from clothing material. Treated specimens were assayed with untreated controls to correct for the bite resistance afforded by material construction and composition. The untreated control was tested at the beginning of the experiment, followed by successively higher candidate repellent concentrations on sleeves. Sleeves were sewn from a cut out single ply trapezoidal pattern (33.2 cm×21 cm×25.5 cm height) of material. […] Permethrin was 35:65cis: trans, 95.85% technical material. Experimental repellents were received as neat samples with <5% impurities. The treatment occurred by dissolution of repellent in suitable quantity of acetone to saturate the clothing, but minimizing excess solution. Excess solution was quantified and this amount of excess was then used to calculate the estimated amount of repellent applied to the material. […] The photoperiod was 12:12. The mosquito cages were approximately 60000 cm^3 and each contained 175 to 225 female mosquitoes. […] Cages for sand fly work were slightly smaller (15000 cm^3) and constructed of acrylic for filming purposes and with screens on the exterior edges to allow air flow through the system. About 20-40 sand flies were released in cages for each assay. Assays started when the sleeved arm was inserted through the sleeve into the cage. Normally the hand was protected by a glove, but there were situations (i.e. sand fly data presented here) when the ability of a repellent to protect the untreated hand was determined. The assay periods were 15 min for the mosquitoes and 25-30 minutes for sand flies. The insects were allowed to land, probe and possibly bloodfeed during this time. At the conclusion of the experiment, all insects were knocked down or aspirated and the percentage that bloodfed of the total female test population in the cage was recorded. The protect level was calculated by Abbott's formula as a percentage reduction in bites compared to the untreated fabric control sleeve. Specific conditions for bioassays are noted with corresponding data contained in the Tables.
# [2] = system: Phlebotomus papatasi sand flies; experiment: Sleeve bite protection assay on treated uniform fabric, sand flies; assay type: in vivo, Phlebotomus papatasi (Jerusalem, 1983); details: FRACU, 25-29 minutes
# Experimental: as §1
# [3] = ACU (50/50 NYCO) sleeve, glove on hand, 15 min, permethrin 0.118, transfluthrin 0.108, TL-I-107 0.107, TL-I-141 0.109, TL-I-105 0.107, TL-I-73 0.102 mg/cm^2
# [4] = ACU (50/50 NYCO) sleeve, glove on hand, Abbott's formula vs untreated sleeve, concentrations as E1
# [5] = ACU (50/50 NYCO) sleeve, glove on hand, concentrations as E1
# [6] = ACU sleeve, stored one year then tested, concentrations as E1
# [7] = ACU sleeve, treated specimens stored in refrigerator for one year then tested, concentrations as E1
# [8] = FRACU, untreated sleeve + treated strip, Ultrathon (34.34% DEET) on hand, TL-I-73 0.163, transfluthrin 0.158 mg/cm^2
# [9] = FRACU, untreated sleeve + treated strip, hand gloved, TL-I-73 0.163, transfluthrin 0.158 mg/cm^2
# [10] = untreated sleeve + TL-I-73 strip 0.163 mg/cm^2, hand ungloved
# [11] = ACU sleeve, No Glove on hand, permethrin 0.118, transfluthrin 0.108 mg/cm^2
# [12] = FRACU sleeve, concentrations as E9
# [13] = FRACU, permethrin sleeve 0.135 mg/cm^2 + untreated strip, Ultrathon (34.34% DEET) on hand
# [14] = FRACU, permethrin sleeve 0.135 mg/cm^2 + untreated strip, hand gloved
# [15] = permethrin sleeve 0.135 mg/cm^2 + untreated strip, hand ungloved
SMILES,"Knockdown 6 min (%) ([1]; 2.5 nM\cm^2, K&D module)","Knockdown 1 hour (%) ([1]; 2.5 nM\cm^2, K&D module)","Knockdown 24 hours (%) ([1]; 2.5 nM\cm^2, K&D module)","Not feeding 3 minutes (%) ([1]; 2.5 nM\cm^2, K&D module)","Knockdown 6 min (%) ([1]; 25 nM\cm^2, K&D module)","Knockdown 1 hour (%) ([1]; 25 nM\cm^2, K&D module)","Knockdown 24 hours (%) ([1]; 25 nM\cm^2, K&D module)","Not feeding 3 minutes (%) ([1]; 25 nM\cm^2, K&D module)",Blood-fed # (Ae. aegypti mosquitoes; [3]),Bite Protection (%) (Ae. aegypti mosquitoes; [4]),Fed (%) (Ae. aegypti mosquitoes; [5]),Bite Protection (%) (Ae. aegypti mosquitoes; [6]),Fed (%) (Ae. aegypti mosquitoes; [6]),Blood-fed # (Ae. aegypti mosquitoes; [7]),further results
CC(C)=C[C@@H]1[C@@H](C(=O)OCc2c(Cl)c(Cl)c(C)c(Cl)c2Cl)C1(C)C [TL-I-109],4%,35%,6%,98%,4%,58%,37%,98%,,,,,,,
Cc1c(Cl)c(Cl)c(COC(=O)C2C(C=C(Cl)Cl)C2(C)C)c(Cl)c1Cl (centres unmarked) [TL-I-111],0%,16%,8%,90%,2%,23%,16%,92%,,,,,,,
"CC1(C)C(C=C(Cl)Cl)C1C(=O)OC(C#N)c1cccc(Oc2ccccc2)c1 (centres unmarked) [a-cypermethrin, reference compound]",67%,91%,100%,81%,83%,100%,100%,98%,,,,,,,
COCc1c(Cl)c(Cl)c(COC(=O)[C@@H]2[C@@H](C=C(C)C)C2(C)C)c(Cl)c1Cl [TL-I-73],97%,100%,100%,100%,97%,100%,100%,100%,0 #,100%,0.0%,100%,0.0%,0 #,"Blood-fed # (Ae. aegypti mosquitoes; FRACU, untreated sleeve + treated strip (20.5 cm × 2.6 cm) at wrist, hand gloved, TL-I-73 0.163, transfluthrin 0.158 mg/cm^2): 71 #; Blood-fed # (Ae. aegypti mosquitoes; FRACU, untreated sleeve + treated strip, Ultrathon 12 hr repellent (34.34% DEET) on hand, TL-I-73 0.163, transfluthrin 0.158 mg/cm^2): 85 #; Bite Protection (%) (Ae. aegypti mosquitoes; [8]): −45%; Fed (%) (Ae. aegypti mosquitoes; [8]): 38.8%; Bite Protection (%) (Ae. aegypti mosquitoes; [9]): 57.2%; Fed (%) (Ae. aegypti mosquitoes; [9]): 10.5%; Bite Protection (%) [2, 10]: 21.8%; Blood-fed # [2, 10]: 7 #; Fed (%) [2, 10]: 31.8%"
Cc1c(Cl)c(Cl)c(COC(=O)C2C(C=C(Cl)C(F)(F)F)C2(C)C)c(Cl)c1Cl (centres unmarked) [TL-I-113],0%,14%,9%,76%,0%,34%,23%,92%,,,,,,,
Cc1c(F)c(F)c(COC(=O)[C@@H]2[C@@H](C=C(Cl)Cl)C2(C)C)c(F)c1F [TL-I-141],100%,,100%,100%,100%,,100%,100%,0 #,100%,0.0%,100%,0.0%,0 #,"Knockdown 1 hour (%) ([1]; 2.5 nmol/cm^2, K&D module): 100%; Knockdown 1 hour (%) ([1]; 25 nmol/cm^2, K&D module): 100%; mortality at 0.0025 µM ([1]; Aedes aegypti, 24 h): 100%; mortality at 0.025 µM ([1]; Aedes aegypti, 48 h): 100%"
CC1(C)C(C=C(Cl)Cl)C1C(=O)OCc1cccc(Oc2ccccc2)c1 (centres unmarked) [Permethrin],,,,,,,,,0 #,100%,0.0%,100%,0.0%,0 #,"Blood-fed # (Ae. aegypti mosquitoes; [11]): 32 #; Fed (%) (Ae. aegypti mosquitoes; [11]): 18.1%; Blood-fed # (Ae. aegypti mosquitoes; FRACU (65% Rayon, 10% Nylon, 25% Para-aramid) sleeve, permethrin 0.071, combination permethrin 0.031 + transfluthrin 0.038, transfluthrin 0.052 mg/cm^2): 24 #; Bite Protection (%) (Ae. aegypti mosquitoes; [12]): 86.7%; Fed (%) (Ae. aegypti mosquitoes; [12]): 10.5%; Bite Protection (%) (Ae. aegypti mosquitoes; [13]): 71.5%; Blood-fed # (Ae. aegypti mosquitoes; [13]): 15 #; Fed (%) (Ae. aegypti mosquitoes; [13]): 7.6%; Bite Protection (%) (Ae. aegypti mosquitoes; [14]): 94.0%; Blood-fed # (Ae. aegypti mosquitoes; [14]): 10 #; Fed (%) (Ae. aegypti mosquitoes; [14]): 4.9%; Bite Protection (%) [2, 15]: −28.5%; Blood-fed # [2, 15]: 11 #; Fed (%) [2, 15]: 52.3%; Bite Protection (%) ([2]; permethrin sleeve 0.135 mg/cm^2 + untreated strip, hand ungloved, listed as permethrin): increased bites on the skin"
